Experimental findings from doi:10.1101/2023.03.24.534094v2 (biorxiv, 2023) are described below.

Some targets named below: AAK1 (Homo sapiens, UniProt Q2M2I8); AKT3 (Homo sapiens, UniProt Q9Y243); CK2a1 (Homo sapiens, UniProt P68400).
What all share (assay): biochemical
The target of a further test is T1, MYT1 (Homo sapiens, UniProt Q99640).
T1 sequence (Q99640 1-499): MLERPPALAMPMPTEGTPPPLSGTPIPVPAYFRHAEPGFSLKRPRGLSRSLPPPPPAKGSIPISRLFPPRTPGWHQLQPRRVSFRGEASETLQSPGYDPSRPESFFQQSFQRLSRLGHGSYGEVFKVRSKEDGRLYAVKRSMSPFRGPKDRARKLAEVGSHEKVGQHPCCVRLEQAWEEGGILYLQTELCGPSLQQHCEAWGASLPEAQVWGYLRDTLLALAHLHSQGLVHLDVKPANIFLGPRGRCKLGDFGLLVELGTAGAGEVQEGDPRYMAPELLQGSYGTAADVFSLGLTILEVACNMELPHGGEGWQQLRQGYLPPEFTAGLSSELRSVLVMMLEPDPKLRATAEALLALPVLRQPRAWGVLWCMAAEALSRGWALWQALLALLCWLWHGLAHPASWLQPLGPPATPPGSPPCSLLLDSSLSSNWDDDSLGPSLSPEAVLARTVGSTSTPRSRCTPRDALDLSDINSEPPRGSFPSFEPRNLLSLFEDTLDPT

For a further test, the target named is T2, NEK1 (Homo sapiens, UniProt Q96PY6).
T2 sequence (Q96PY6 1-1258): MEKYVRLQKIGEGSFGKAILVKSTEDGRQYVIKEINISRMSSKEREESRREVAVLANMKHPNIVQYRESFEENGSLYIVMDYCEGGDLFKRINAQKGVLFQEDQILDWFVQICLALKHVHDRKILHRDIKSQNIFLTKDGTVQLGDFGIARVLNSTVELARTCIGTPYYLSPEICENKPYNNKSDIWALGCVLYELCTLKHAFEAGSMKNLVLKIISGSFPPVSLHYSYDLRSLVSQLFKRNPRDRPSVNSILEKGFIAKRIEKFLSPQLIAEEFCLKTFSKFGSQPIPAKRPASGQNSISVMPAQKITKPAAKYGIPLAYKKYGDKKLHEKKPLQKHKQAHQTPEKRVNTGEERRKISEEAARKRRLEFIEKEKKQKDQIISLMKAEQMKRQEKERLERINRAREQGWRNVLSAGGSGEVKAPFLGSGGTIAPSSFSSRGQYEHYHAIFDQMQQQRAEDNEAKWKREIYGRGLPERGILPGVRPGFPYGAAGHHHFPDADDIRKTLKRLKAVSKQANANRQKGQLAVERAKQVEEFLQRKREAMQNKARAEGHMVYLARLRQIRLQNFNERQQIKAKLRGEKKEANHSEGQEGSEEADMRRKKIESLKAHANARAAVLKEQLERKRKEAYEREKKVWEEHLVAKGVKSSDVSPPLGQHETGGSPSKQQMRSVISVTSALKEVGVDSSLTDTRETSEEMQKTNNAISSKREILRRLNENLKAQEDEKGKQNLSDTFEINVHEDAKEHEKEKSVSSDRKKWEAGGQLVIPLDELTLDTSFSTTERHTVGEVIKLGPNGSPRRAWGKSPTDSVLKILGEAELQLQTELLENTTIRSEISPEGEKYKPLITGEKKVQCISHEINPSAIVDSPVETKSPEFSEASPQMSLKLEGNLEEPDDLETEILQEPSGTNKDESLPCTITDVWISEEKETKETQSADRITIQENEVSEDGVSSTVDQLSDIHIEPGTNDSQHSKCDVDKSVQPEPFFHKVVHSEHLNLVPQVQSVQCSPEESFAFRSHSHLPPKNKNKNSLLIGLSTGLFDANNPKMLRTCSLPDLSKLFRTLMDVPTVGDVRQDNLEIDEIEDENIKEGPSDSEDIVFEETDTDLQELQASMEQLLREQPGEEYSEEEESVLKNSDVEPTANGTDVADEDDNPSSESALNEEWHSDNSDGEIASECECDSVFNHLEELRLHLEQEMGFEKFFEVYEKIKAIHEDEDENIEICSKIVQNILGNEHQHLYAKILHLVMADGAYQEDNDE

The next test addresses T3, NEK2 (Homo sapiens, UniProt P51955).
T3 sequence (P51955 1-445): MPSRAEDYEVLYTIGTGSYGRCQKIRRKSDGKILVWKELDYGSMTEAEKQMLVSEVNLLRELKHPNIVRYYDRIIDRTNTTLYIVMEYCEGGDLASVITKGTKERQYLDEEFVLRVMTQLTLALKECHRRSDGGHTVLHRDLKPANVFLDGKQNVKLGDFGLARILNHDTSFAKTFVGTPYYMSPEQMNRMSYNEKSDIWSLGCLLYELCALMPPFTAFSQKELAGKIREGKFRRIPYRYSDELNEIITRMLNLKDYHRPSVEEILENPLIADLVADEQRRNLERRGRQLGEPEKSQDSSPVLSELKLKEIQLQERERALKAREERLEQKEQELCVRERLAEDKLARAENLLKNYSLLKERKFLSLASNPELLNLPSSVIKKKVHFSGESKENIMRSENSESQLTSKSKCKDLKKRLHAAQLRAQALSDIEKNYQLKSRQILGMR

Like-named read-outs stand apart in the source and are kept apart here.

Chain of AKT3 (Q9Y243 whole entry): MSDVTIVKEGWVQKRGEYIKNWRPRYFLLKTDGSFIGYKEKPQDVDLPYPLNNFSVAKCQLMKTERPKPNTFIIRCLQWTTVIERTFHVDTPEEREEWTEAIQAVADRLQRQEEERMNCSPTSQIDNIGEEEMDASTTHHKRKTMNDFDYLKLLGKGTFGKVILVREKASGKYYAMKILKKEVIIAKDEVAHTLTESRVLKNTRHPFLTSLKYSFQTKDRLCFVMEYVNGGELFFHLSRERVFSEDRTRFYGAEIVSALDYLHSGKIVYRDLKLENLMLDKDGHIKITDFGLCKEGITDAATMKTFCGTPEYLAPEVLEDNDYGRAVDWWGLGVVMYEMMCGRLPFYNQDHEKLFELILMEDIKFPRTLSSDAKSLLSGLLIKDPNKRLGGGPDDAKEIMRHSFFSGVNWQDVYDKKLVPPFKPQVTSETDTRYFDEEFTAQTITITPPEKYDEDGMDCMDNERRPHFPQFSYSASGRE
Chain of AAK1 (Q2M2I8 whole entry): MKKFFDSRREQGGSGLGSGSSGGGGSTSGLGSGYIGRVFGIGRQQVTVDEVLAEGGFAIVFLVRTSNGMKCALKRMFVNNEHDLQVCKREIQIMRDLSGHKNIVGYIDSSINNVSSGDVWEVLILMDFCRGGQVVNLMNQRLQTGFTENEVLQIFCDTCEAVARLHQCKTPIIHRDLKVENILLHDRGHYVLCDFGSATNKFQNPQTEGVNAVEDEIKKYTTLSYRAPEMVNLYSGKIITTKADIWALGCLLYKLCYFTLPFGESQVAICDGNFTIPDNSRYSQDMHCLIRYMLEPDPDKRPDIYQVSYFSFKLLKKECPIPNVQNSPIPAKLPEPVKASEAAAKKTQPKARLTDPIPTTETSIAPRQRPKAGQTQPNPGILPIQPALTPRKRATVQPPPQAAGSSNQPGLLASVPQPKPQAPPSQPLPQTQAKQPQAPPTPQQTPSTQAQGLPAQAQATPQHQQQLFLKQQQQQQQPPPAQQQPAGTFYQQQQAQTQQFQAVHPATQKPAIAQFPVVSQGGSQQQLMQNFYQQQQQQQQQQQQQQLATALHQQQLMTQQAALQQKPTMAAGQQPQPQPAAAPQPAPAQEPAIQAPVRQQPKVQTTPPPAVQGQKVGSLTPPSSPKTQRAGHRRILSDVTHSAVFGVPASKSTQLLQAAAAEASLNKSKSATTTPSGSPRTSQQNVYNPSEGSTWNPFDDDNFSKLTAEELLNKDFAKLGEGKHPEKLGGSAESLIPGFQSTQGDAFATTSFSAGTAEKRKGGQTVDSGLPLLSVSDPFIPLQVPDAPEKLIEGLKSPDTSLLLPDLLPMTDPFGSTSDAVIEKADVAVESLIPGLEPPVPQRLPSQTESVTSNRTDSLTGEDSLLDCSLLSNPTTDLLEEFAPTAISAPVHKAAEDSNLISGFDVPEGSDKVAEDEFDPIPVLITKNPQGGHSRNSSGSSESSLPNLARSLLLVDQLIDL
Chain of CK2a1 (P68400 whole entry): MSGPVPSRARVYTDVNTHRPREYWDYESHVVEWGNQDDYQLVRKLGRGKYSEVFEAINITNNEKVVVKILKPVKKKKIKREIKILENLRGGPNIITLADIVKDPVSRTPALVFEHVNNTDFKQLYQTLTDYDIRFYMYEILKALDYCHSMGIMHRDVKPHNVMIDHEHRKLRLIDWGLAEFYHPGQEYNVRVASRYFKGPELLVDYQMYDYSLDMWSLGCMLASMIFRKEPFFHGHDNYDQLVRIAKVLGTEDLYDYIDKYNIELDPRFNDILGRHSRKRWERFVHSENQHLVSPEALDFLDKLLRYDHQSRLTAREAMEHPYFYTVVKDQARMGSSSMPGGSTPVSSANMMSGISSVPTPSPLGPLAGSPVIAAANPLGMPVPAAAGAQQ

For the compound `CNc1ncc2cc(-c3ccc(-c4cccc(C)n4)cc3Cl)c(=O)n(CC3OCC(N)CO3)c2n1` (centres unmarked) [compound 2, G-5555], the “dTm G-5555 (2)” value at AAK1 (10 µM, binder) was 0.6 °C; at AKT3 (10 µM, binder) it was 1.4 °C; on CK2a1 (10 µM, binder) it was 0.1 °C; at MYT1 (10 µM, binder) it was -2.1 °C; at NEK1 (10 µM, binder) it was -2.2 °C.
For the compound `CNc1ncc2cc(-c3ccccc3Cl)c(=O)n(CCCCN)c2n1` [compound 4, 8-(4-Aminobutyl)-6-(2-chlorophenyl)-2-(methylamino)pyrido[2,3-d]pyrimidin-7(8H)-one], the ΔTm at 10 µM on AAK1 (read-out: dTm MR21 (4)) is 1.6 °C; at AKT3 (read-out: dTm MR21 (4)) it was 0.7 °C; at CK2a1 (read-out: dTm MR21 (4)), -0.4 °C; at MYT1 (read-out: dTm MR21 (4)) it was -2.3 °C; on NEK1 (read-out: dTm MR21 (4)), 0.1 °C; on NEK2 (read-out: dTm MR21 (4)), 0.5 °C.
Consider `CNc1ncc2cc(-c3cc(Br)ccc3Cl)c(=O)n(C[C@H]3OC[C@H](N)CO3)c2n1` [compound 7, 8-(((2r,5r)-5-Amino-1,3-dioxan-2-yl)methyl)-6-(5-bromo-2-chlorophenyl)-2-(methylamino)pyrido[2,3-d]pyrimidin-7(8H)-one], for which the ΔTm at 10 µM stood at 0.5 °C on AAK1 (read-out: dTm 7); 0 °C at AKT3 (read-out: dTm 7); 0.4 °C at CK2a1 (read-out: dTm 7); 0.1 °C at MYT1 (read-out: dTm 7); 0.1 °C on NEK1 (read-out: dTm 7); 2.1 °C at NEK2 (read-out: dTm 7).
Turning to `CNc1ncc2cc(-c3cc(Br)ccc3Cl)c(=O)n(CCCCN)c2n1` [compound 6, 8-(4-Aminobutyl)-6-(5-bromo-2-chlorophenyl)-2-(methylamino)pyrido[2,3-d]pyrimidin-7(8H)-one], the ΔTm at 10 µM was 0.7 °C at AAK1 (read-out: dTm 6); 0.2 °C at AKT3 (read-out: dTm 6); 0.2 °C on CK2a1 (read-out: dTm 6); -1.4 °C at MYT1 (read-out: dTm 6); -0.3 °C on NEK1 (read-out: dTm 6); 2 °C at NEK2 (read-out: dTm 6).
As for `CNc1ncc2cc(-c3cc(F)ccc3F)c(=O)n(CCCCN)c2n1` [compound 5, 8-(4-Aminobutyl)-6-(2,5-difluorophenyl)-2-(methylamino)pyrido[2,3-d]pyrimidin-7(8H)-one], the ΔTm at 10 µM at AAK1 (read-out: dTm MR22 (5)) is 0.4 °C; at AKT3 (read-out: dTm MR22 (5)) it was 0.5 °C; on CK2a1 (read-out: dTm MR22 (5)), 0.4 °C; at MYT1 (read-out: dTm MR22 (5)) it was -2.1 °C; at NEK1 (read-out: dTm MR22 (5)) it was 0 °C; at NEK2 (read-out: dTm MR22 (5)) it was 1 °C.
